± gives the expanded uncertainty stated by the source.
Settings: Liquid; for viscosity: 101.33 kPa, Concentric cylinders viscometry; for mass density: Vibrating tube method

Question: For `COC(=O)CCCCC(=O)OC` [dimethyl 1,6-hexanedioate], which viscosity (283.15 K) is on record?
Answer: 4.39 ± 0.09 mPa·s

Question: What about the viscosity (288.15 K) of the same compound?
Answer: 3.82 ± 0.08 mPa·s

Question: What about the mass density (293.15 K, 100 kPa) of the same compound?
Answer: 1061.5 ± 2.1 kg/m3

Question: What about the viscosity (293.15 K) of the same compound?
Answer: 3.36 ± 0.07 mPa·s

Question: What about the mass density (293.15 K, 10000 kPa) of the same compound?
Answer: 1067.7 ± 2.2 kg/m3

Question: And the mass density (293.15 K, 20000 kPa)?
Answer: 1073.6 ± 2.2 kg/m3

Question: And the mass density (293.15 K, 30000 kPa)?
Answer: 1079.2 ± 2.2 kg/m3

Question: And the mass density (293.15 K, 40000 kPa)?
Answer: 1084.5 ± 2.2 kg/m3

Question: And the mass density (293.15 K, 50000 kPa)?
Answer: 1089.6 ± 2.2 kg/m3

Question: And the mass density (293.15 K, 60000 kPa)?
Answer: 1094.7 ± 2.2 kg/m3

Question: What about the mass density (293.15 K, 70000 kPa) of the same compound?
Answer: 1099.5 ± 2.3 kg/m3

Question: And the mass density (293.15 K, 80000 kPa)?
Answer: 1104.2 ± 2.3 kg/m3

Question: What about the mass density (293.15 K, 90000 kPa) of the same compound?
Answer: 1108.5 ± 2.3 kg/m3

Question: What about the mass density (293.15 K, 100000 kPa) of the same compound?
Answer: 1112.8 ± 2.3 kg/m3

Question: And the viscosity (298.15 K)?
Answer: 2.98 ± 0.06 mPa·s

Question: What about the mass density (303.15 K, 100 kPa) of the same compound?
Answer: 1051.8 ± 2.1 kg/m3

Question: And the viscosity (303.15 K)?
Answer: 2.67 ± 0.06 mPa·s

Question: What about the mass density (303.15 K, 10000 kPa) of the same compound?
Answer: 1058 ± 2.1 kg/m3

Question: And the mass density (303.15 K, 20000 kPa)?
Answer: 1064.4 ± 2.2 kg/m3

Question: And the mass density (303.15 K, 30000 kPa)?
Answer: 1070.5 ± 2.2 kg/m3

Question: What about the mass density (303.15 K, 40000 kPa) of the same compound?
Answer: 1076 ± 2.2 kg/m3

Question: And the mass density (303.15 K, 50000 kPa)?
Answer: 1081.5 ± 2.2 kg/m3

Question: What about the mass density (303.15 K, 60000 kPa) of the same compound?
Answer: 1086.7 ± 2.2 kg/m3

Question: And the mass density (303.15 K, 70000 kPa)?
Answer: 1091.5 ± 2.2 kg/m3

Question: And the mass density (303.15 K, 80000 kPa)?
Answer: 1096.1 ± 2.3 kg/m3

Question: And the mass density (303.15 K, 90000 kPa)?
Answer: 1100.6 ± 2.3 kg/m3

Question: And the mass density (303.15 K, 100000 kPa)?
Answer: 1104.7 ± 2.3 kg/m3

Question: And the mass density (303.15 K, 110000 kPa)?
Answer: 1108.9 ± 2.4 kg/m3

Question: And the mass density (303.15 K, 120000 kPa)?
Answer: 1113.1 ± 2.4 kg/m3

Question: And the mass density (303.15 K, 130000 kPa)?
Answer: 1117 ± 2.4 kg/m3

Question: What about the mass density (303.15 K, 140000 kPa) of the same compound?
Answer: 1120.9 ± 2.5 kg/m3

Question: And the viscosity (308.15 K)?
Answer: 2.4 ± 0.05 mPa·s

Question: What about the mass density (313.15 K, 100 kPa) of the same compound?
Answer: 1042.1 ± 2.1 kg/m3

Question: What about the viscosity (313.15 K) of the same compound?
Answer: 2.18 ± 0.05 mPa·s

Question: What about the mass density (313.15 K, 10000 kPa) of the same compound?
Answer: 1048.9 ± 2.1 kg/m3

Question: And the mass density (313.15 K, 20000 kPa)?
Answer: 1055.6 ± 2.1 kg/m3

Question: What about the mass density (313.15 K, 30000 kPa) of the same compound?
Answer: 1061.8 ± 2.1 kg/m3

Question: What about the mass density (313.15 K, 40000 kPa) of the same compound?
Answer: 1067.5 ± 2.2 kg/m3

Question: And the mass density (313.15 K, 50000 kPa)?
Answer: 1073.2 ± 2.2 kg/m3

Question: And the mass density (313.15 K, 60000 kPa)?
Answer: 1078.6 ± 2.2 kg/m3

Question: What about the mass density (313.15 K, 70000 kPa) of the same compound?
Answer: 1083.7 ± 2.2 kg/m3

Question: What about the mass density (313.15 K, 80000 kPa) of the same compound?
Answer: 1088.7 ± 2.2 kg/m3

Question: And the mass density (313.15 K, 90000 kPa)?
Answer: 1093.2 ± 2.3 kg/m3

Question: And the mass density (313.15 K, 100000 kPa)?
Answer: 1097.2 ± 2.3 kg/m3

Question: And the mass density (313.15 K, 110000 kPa)?
Answer: 1101.5 ± 2.3 kg/m3

Question: What about the mass density (313.15 K, 120000 kPa) of the same compound?
Answer: 1105.6 ± 2.4 kg/m3

Question: And the mass density (313.15 K, 130000 kPa)?
Answer: 1109.8 ± 2.4 kg/m3

Question: And the mass density (313.15 K, 140000 kPa)?
Answer: 1113.8 ± 2.4 kg/m3

Question: What about the viscosity (318.15 K) of the same compound?
Answer: 1.99 ± 0.04 mPa·s

Question: And the mass density (323.15 K, 100 kPa)?
Answer: 1031.6 ± 2.1 kg/m3

Question: And the viscosity (323.15 K)?
Answer: 1.82 ± 0.04 mPa·s

Question: And the mass density (323.15 K, 10000 kPa)?
Answer: 1038.9 ± 2.1 kg/m3

Question: And the mass density (323.15 K, 20000 kPa)?
Answer: 1045.7 ± 2.1 kg/m3

Question: And the mass density (323.15 K, 30000 kPa)?
Answer: 1052.1 ± 2.1 kg/m3

Question: And the mass density (323.15 K, 40000 kPa)?
Answer: 1058.3 ± 2.1 kg/m3

Question: What about the mass density (323.15 K, 50000 kPa) of the same compound?
Answer: 1063.9 ± 2.2 kg/m3

Question: And the mass density (323.15 K, 60000 kPa)?
Answer: 1069.1 ± 2.2 kg/m3

Question: And the mass density (323.15 K, 70000 kPa)?
Answer: 1074.4 ± 2.2 kg/m3

Question: And the mass density (323.15 K, 80000 kPa)?
Answer: 1079.3 ± 2.2 kg/m3

Question: What about the mass density (323.15 K, 90000 kPa) of the same compound?
Answer: 1084.2 ± 2.2 kg/m3

Question: And the mass density (323.15 K, 100000 kPa)?
Answer: 1088.9 ± 2.3 kg/m3

Question: And the mass density (323.15 K, 110000 kPa)?
Answer: 1093.3 ± 2.3 kg/m3

Question: What about the mass density (323.15 K, 120000 kPa) of the same compound?
Answer: 1097.9 ± 2.3 kg/m3

Question: And the mass density (323.15 K, 130000 kPa)?
Answer: 1102.2 ± 2.4 kg/m3

Question: What about the mass density (323.15 K, 140000 kPa) of the same compound?
Answer: 1106.2 ± 2.4 kg/m3

Question: And the viscosity (328.15 K)?
Answer: 1.68 ± 0.04 mPa·s

Question: And the mass density (333.15 K, 100 kPa)?
Answer: 1022.6 ± 2.1 kg/m3

Question: And the viscosity (333.15 K)?
Answer: 1.55 ± 0.03 mPa·s

Question: What about the mass density (333.15 K, 10000 kPa) of the same compound?
Answer: 1029.6 ± 2.1 kg/m3

Question: And the mass density (333.15 K, 20000 kPa)?
Answer: 1036.8 ± 2.1 kg/m3

Question: And the mass density (333.15 K, 30000 kPa)?
Answer: 1043.6 ± 2.1 kg/m3

Question: What about the mass density (333.15 K, 40000 kPa) of the same compound?
Answer: 1049.9 ± 2.1 kg/m3

Question: What about the mass density (333.15 K, 50000 kPa) of the same compound?
Answer: 1056 ± 2.1 kg/m3

Question: What about the mass density (333.15 K, 60000 kPa) of the same compound?
Answer: 1061.5 ± 2.2 kg/m3

Question: And the mass density (333.15 K, 70000 kPa)?
Answer: 1066.9 ± 2.2 kg/m3

Question: And the mass density (333.15 K, 80000 kPa)?
Answer: 1072 ± 2.2 kg/m3

Question: What about the mass density (333.15 K, 90000 kPa) of the same compound?
Answer: 1076.9 ± 2.2 kg/m3

Question: What about the mass density (333.15 K, 100000 kPa) of the same compound?
Answer: 1082 ± 2.3 kg/m3

Question: And the mass density (333.15 K, 110000 kPa)?
Answer: 1086.8 ± 2.3 kg/m3

Question: What about the mass density (333.15 K, 120000 kPa) of the same compound?
Answer: 1091.1 ± 2.3 kg/m3

Question: And the mass density (333.15 K, 130000 kPa)?
Answer: 1095.5 ± 2.4 kg/m3

Question: What about the mass density (333.15 K, 140000 kPa) of the same compound?
Answer: 1099.8 ± 2.4 kg/m3

Question: And the viscosity (338.15 K)?
Answer: 1.44 ± 0.03 mPa·s

Question: What about the mass density (343.15 K, 100 kPa) of the same compound?
Answer: 1012.3 ± 2 kg/m3

Question: What about the viscosity (343.15 K) of the same compound?
Answer: 1.34 ± 0.03 mPa·s

Question: What about the mass density (343.15 K, 10000 kPa) of the same compound?
Answer: 1020.4 ± 2.1 kg/m3

Question: What about the mass density (343.15 K, 20000 kPa) of the same compound?
Answer: 1028.1 ± 2.1 kg/m3

Question: What about the mass density (343.15 K, 30000 kPa) of the same compound?
Answer: 1034.8 ± 2.1 kg/m3

Question: What about the mass density (343.15 K, 40000 kPa) of the same compound?
Answer: 1041.3 ± 2.1 kg/m3

Question: And the mass density (343.15 K, 50000 kPa)?
Answer: 1047.6 ± 2.1 kg/m3

Question: And the mass density (343.15 K, 60000 kPa)?
Answer: 1053.5 ± 2.1 kg/m3

Question: What about the mass density (343.15 K, 70000 kPa) of the same compound?
Answer: 1058.6 ± 2.2 kg/m3

Question: What about the mass density (343.15 K, 80000 kPa) of the same compound?
Answer: 1064.2 ± 2.2 kg/m3

Question: And the mass density (343.15 K, 90000 kPa)?
Answer: 1069.3 ± 2.2 kg/m3

Question: And the mass density (343.15 K, 100000 kPa)?
Answer: 1074.1 ± 2.2 kg/m3

Question: And the mass density (343.15 K, 110000 kPa)?
Answer: 1079 ± 2.3 kg/m3

Question: What about the mass density (343.15 K, 120000 kPa) of the same compound?
Answer: 1083.9 ± 2.3 kg/m3
